Values quoted from earlier work, collected in patent publication US20080124400A1, “Microparticles With High Loadings Of A Bioactive Agent” (Angiotech International AG, priority 2004, published 2008).

Experiments:
[1] = tested on: neutrophil
[2] = tested on: T-cell
[3] = tested on: synoviocytes
[4] = tested on: AP-1
[5] = tested on: collagen induced arthritis; conditions: animal model
[6] = tested on: normal chondrocytes and non-proliferating synoviocytes

## CC(=O)O[C@H]1C(=O)[C@@]2(C)[C@H]([C@H](OC(=O)c3ccccc3)[C@]3(O)C[C@H](OC(=O)[C@H](O)[C@@H](NC(=O)c4ccccc4)c4ccccc4)C(C)=C1C3(C)C)[C@]1(OC(C)=O)CO[C@@H]1C[C@@H]2O [Paclitaxel, paclitaxel]
[1]
  neutrophil activation: inhibits neutrophil activation
[2]
  T-cell response to stimuli and T-cell function: decreases T-cell response to stimuli, and inhibits T-cell function
[3]
  proliferation and apoptosis of synoviocytes: prevents the proliferation of and induces apoptosis in synoviocytes
[4]
  AP-1 transcription activity: inhibits AP-1 transcription activity
[5]
  collagen induced arthritis: inhibits collagen induced arthritis
[6]
  toxicity to non-proliferating cells: non-toxic
